Assay results taken from paper PMC11311250 (Organic & biomolecular chemistry, 2023).
Read-outs that look alike come from different tables or passages of the source.

How the values were obtained:
[1] = amide bond, 12-membered ring
[2] = amide bond; 12-membered ring; T3P/DIEA; DMF; 45.0 °C
P. aeruginosa K799 = test: antibacterial microdilution growth inhibition; type: cell-based, Pseudomonas aeruginosa
[3] = T3P/DIEA, DCE, 1.0 mM, 80.0 °C, 3 steps
[4] = T3P/collidine, DCE, 1.0 mM, 80.0 °C, 3 steps

In the case of epi-pseudoxylallemycin, the ring closure, isolated yield ([1]; T3P/DIEA, DCM/DMF 9:1, 45.0 °C) is reported as 26%.

pseudoxylallemycin A showed a ring closure, isolated yield [1, 3] of 18.1%, a ring closure, isolated yield ([1]; T3P/DIEA, DMF, 1.0 mM, 45.0 °C, 3 steps) of 11.7% and a ring closure, isolated yield ([1]; T3P/DIEA, DMF, 1.0 mM, 80.0 °C, 3 steps) of 14.7%. It also gave a ring closure, isolated yield ([1]; T3P/DtBP, DCE, 1.0 mM, 80.0 °C, 3 steps) of 19%, a ring closure, isolated yield [1, 4] of 36% and a ring closure, isolated yield ([1]; T3P/pyridine, DCE, 1.0 mM, 80.0 °C, 3 steps) of 32%. It also gave a ring closure, yield after HPLC [2] of 24%.

With “all-L cyclo(N-Me-Leu–Phe)2 (head to tail) [pseudoxylallemycin A]” the growth inhibition (P. aeruginosa K799) was “failed to inhibit the growth”.

ALAL showed a ring closure, isolated yield [1, 4] of 11%.

With epi-pseudoxylallemycin A the ring closure, isolated yield [1, 4] was 33%.

For “(3S,6S,9R,12S)-3,9-dibenzyl-1,6,7,12-tetramethyl-1,4,7,10-tetraazacyclododecane-2,5,8,11-tetraone (cyclo (L-N-Me-Ala–L-Phe–L-N-Me-Ala-D-Phe))”, the ring closure, isolated yield [1, 3] was 5%.
